Where two headings read alike, the source gives them in different places.
Experiments:
[1] = PK in mouse brain after i.v. and oral delivery, cassette study in HCT116 tumor-bearing mice; type: in vivo
[2] = PK profile of compound 15 after oral 30 mg/kg, single dose study; type: in vivo, mice; conditions: female, athymic nude (CD-1 nu/nu), mouse, plasma
Method: Female athymic nude (CD-1 nu/nu) were obtained from Charles River Laboratories (Wilmington, Mass.). They were housed in ventilated micro-isolator cages in Curis animal facility conditioned at temperature of 23±1° C., humidity of 50-70%, and a 12-hour light/12-hour dark cycle. The animals were fed with irradiated laboratory rodent diet ad libitum and provided with sterilized water. […] The cell pellet was diluted in HBSS (Hank's balanced salt solution) for implantation. […] The concentration for each compound in the solution was kept below 5 mg/ml. The maximum number of compound in one cassette was 6.30% Captisol (Cydex) was used for all formulation. At various time points (3 mice per time point) following compound administration, mice were euthanized with CO2, blood and tissues were collected. Blood was collected into tubes containing sodium heparin. The plasma was separated via centrifugation and stored at −40° C. before analysis. Tissues including tumors were homogenized in 0.8 ml water. An internal standard was added into the tissue homogenates. The homogenates were extracted with 1 ml ethyl acetate for three times. After evaporation, the residual was reconstituted in 0.1 ml acetonitrile for LC/MS/MS assay (Agilent HPLC 1100 Series).

[3] = Mouse brain concentrations after oral 30 mg/Kg in nude mice with U87MG xenografts; type: in vivo
[4] = system: cancer derived HSP90 complex (H1975 NSCLC cell extracts); assay: Fluorescence polarization geldanamycin competition binding with H1975 cell extract
[5] = system: cancer derived HSP90 complex (H1993 NSCLC cell extracts); assay: Fluorescence polarization geldanamycin competition binding with H1993 cell extract
[6] = system: H1993 NSCLC cells; assay: Western blot of H1993 NSCLC cells after short-term treatment; type: cell-based; conditions: 1 μmol/L for 7 hours
[7] = system: H1975 NSCLC cells; assay: Western blot of H1975 NSCLC cells after short-term treatment; type: cell-based; conditions: 1 μmol/L for 7 hours
[8] = system: HSP90 client proteins in U87MG s.c. tumors; assay: Pharmacodynamic Western blot analysis of U87MG s.c. tumors; type: in vivo, nude mice; conditions: U87MG s.c. tumors, 40, 80 or 160 mg/kg oral every other day, 21 days
[9] = system: HSP90 client proteins in H1975 subcutaneous tumors; assay: Pharmacodynamic study in H1975 subcutaneous tumors, single dose; type: in vivo; conditions: single dose 160 mg/kg
[10] = system: H1975 subcutaneous tumor; assay: Efficacy study in the H1975 subcutaneous tumor model (80, 120, 160 mg/kg); type: in vivo, nude mice; conditions: H1975 s.c., 80, 120, or 160 mg/kg orally once every 2 days
Description: Cells (3.5×106) were implanted subcutaneously into nude mice.

[11] = system: H1975 orthotopic lung tumor; assay: Efficacy study in the H1975 orthotopic lung tumor (NSCLC) model; type: in vivo, nude mice
Method: Dose-dependent efficacy study of Compound-15 in H1975 orthotopic lung tumor model (n=11): Mice were treated with Compound-15 (20, 40, 80, and 120 mg/kg) starting 4 day after tumor implantation.

[12] = system: H1975 orthotopic lung tumors; assay: Pharmacodynamic study in H1975 orthotopic lung tumors; type: in vivo; conditions: 160 mg/kg once
Description: Tumors were collected at various time points (n=2-3) and subjected to Western blot analysis.

[13] = system: H1975 intracranial tumor; assay: Efficacy study in H1975 intracranial metastasis model; type: in vivo, nude mice; conditions: Compound-15 120 mg/kg orally once every two days, lapatinib 75 mg/kg orally twice a day, 4 wk
[14] = system: A549 subcutaneous tumors; assay: Pharmacodynamic study in K-ras-mutated A549 subcutaneous tumors; type: in vivo; conditions: 160 mg/kg, 6- and 24-h time points
[15] = system: A549 subcutaneous tumor; assay: Efficacy study in A549 subcutaneous tumor model; type: in vivo, nude mice; conditions: A549 s.c., 160 mg/kg orally once every two days
[16] = system: A549 orthotopic lung tumor; assay: Efficacy study in A549 orthotopic lung tumor model; type: in vivo, nude mice; conditions: Compound-15 120 mg/kg orally once every two days, erlotinib 50 mg/kg orally once a day, 4 wk
[17] = system: MV4-11 AML s.c. tumor; assay: Efficacy study in MV4-11 s.c. tumor model; type: in vivo, sever combined immunodeficient mice; conditions: 160 mg/kg orally q2d, three weeks, pretreatment volume 146 mm^3
Description: In an efficacy study using MV4-11 s.c. tumor model (n=8), MV4-11 AML tumor cells (20×10^6) were implanted s.c. into sever combined immunodeficient mice.

[18] = system: H1975 (NSCLC) s.c. tumors; assay: PD study after single oral dosing in H1975 (NSCLC) s.c. tumors; type: in vivo; conditions: single oral dosing 80 mg/kg, 8 h
[19] = system: MDA-MB-468 breast cancer orthotopic tumor; assay: Efficacy study in the MDA-MB-468 orthotopic tumor model; type: in vivo, nude mice; conditions: Compound-15 120 mg/kg orally q2d, paclitaxel 12.5 mg/kg i.p. twice weekly
[20] = system: Colo205 colorectal cancer s.c. tumor; assay: Efficacy study in the Colo205 s.c. tumor model; type: in vivo, nude mice; conditions: 120 mg/kg orally q2d
[21] = female, athymic nude (CD-1 nu/nu), mouse, iv, i.v. delivery (Cassette Study), read-out: HSP90 Compounds in Mouse Brain
[22] = female, athymic nude (CD-1 nu/nu), mouse, oral delivery (10 mg/g Cassette Study), read-out: HSP90 Compounds in Mouse Brain
[23] = then compound-free medium 0, 17 or 24 hours

Q: Which concentration at 0.08333 hr ([1]; female, athymic nude (CD-1 nu/nu), mouse, iv, i.v. delivery (Cassette Study), Time 0.08333 hr, read-out: HSP90 Compounds in Mouse Brain) does the source give for `CN(C)c1cc2c(cc1Sc1nc3c(N)nccc3n1CCNCC(C)(C)C)OCO2` [Compound 15, 2-(6-(dimethylamino)benzo[d][1,3]dioxol-5-ylthio)-1-(2-(neopentylamino)ethyl)-1H-imidazo[4,5-c]pyridin-4-amine] here?
A: The concentration at 0.08333 hr was 3240 ng/g.

Q: And the concentration at 0.5 hr [1, 21]?
A: Its concentration at 0.5 hr is 1450 ng/g.

Q: What about the concentration at 2 hr [1, 21] of the same compound?
A: Its concentration at 2 hr is 773 ng/g.

Q: And the concentration at 6 hr [1, 21]?
A: The concentration at 6 hr was 177 ng/g.

Q: What about the concentration at 24 hr [1, 21] of the same compound?
A: The concentration at 24 hr was 27 ng/g.

Q: What about the concentration at 48 hr [1, 21] of the same compound?
A: Its concentration at 48 hr is 4.8 ng/g.

Q: What about the concentration at 0.5 hr [1, 22] of the same compound?
A: Its concentration at 0.5 hr is 61.2 ng/g.

Q: What about the concentration at 2 hr [1, 22] of the same compound?
A: The concentration at 2 hr was 256 ng/g.

Q: And the concentration at 6 hr [1, 22]?
A: The concentration at 6 hr was 218 ng/g.

Q: And the concentration at 24 hr [1, 22]?
A: The concentration at 24 hr was 5.9 ng/g.

Q: What about the concentration at 48 hr [1, 22] of the same compound?
A: The concentration at 48 hr was 0.7 ng/g.

Q: What about the “AUC i.v. in the brain” value ([1]; i.v.) of the same compound?
A: Its value is 6761.3 ng·h/g.

Q: What about the “AUC p.o. in the brain” value ([1]; p.o.) of the same compound?
A: Its value is 3293.9 ng·h/g.

Q: What about the “F (%) in the brain” value ([1]; p.o. vs i.v.) of the same compound?
A: The value was 24.4%.

Q: And the AUC(0-inf) [2]?
A: The AUC(0-inf) was 10500 ng·h/mL.

Q: And the Cmax [2]?
A: Its Cmax is 1380 ng/mL.

Q: What about the Tmax [2] of the same compound?
A: The Tmax was 2 h.

Q: And the half-life [2]?
A: The half-life was 3.3 h.

Q: And the AUC(0-t) ([2]; read-out: AUC0-24)?
A: Its AUC(0-t) is 10400 ng·h/mL.

Q: And the concentration at 0 hr ([3]; female, athymic nude (CD-1 nu/nu), mouse, brain, oral (30 mg/Kg) delivery, U87MG xenografts, Time 0 hr, read-out: HSP90 Compounds in Mouse Brain)?
A: The concentration at 0 hr was 0 ng/g.

Q: What about the concentration at 0.5 hr ([3]; female, athymic nude (CD-1 nu/nu), mouse, brain, oral (30 mg/Kg) delivery, U87MG xenografts, Time 0.5 hr, read-out: HSP90 Compounds in Mouse Brain) of the same compound?
A: The concentration at 0.5 hr was 66.4 ng/g.

Q: And the concentration at 1 hr ([3]; female, athymic nude (CD-1 nu/nu), mouse, brain, oral (30 mg/Kg) delivery, U87MG xenografts, Time 1 hr, read-out: HSP90 Compounds in Mouse Brain)?
A: The concentration at 1 hr was 124 ng/g.

Q: What about the concentration at 3 hr ([3]; female, athymic nude (CD-1 nu/nu), mouse, brain, oral (30 mg/Kg) delivery, U87MG xenografts, Time 3 hr, read-out: HSP90 Compounds in Mouse Brain) of the same compound?
A: Its concentration at 3 hr is 257 ng/g.

Q: And the concentration at 6 hr ([3]; female, athymic nude (CD-1 nu/nu), mouse, brain, oral (30 mg/Kg) delivery, U87MG xenografts, Time 6 hr, read-out: HSP90 Compounds in Mouse Brain)?
A: The concentration at 6 hr was 77.8 ng/g.

Q: What about the concentration at 24 hr ([3]; female, athymic nude (CD-1 nu/nu), mouse, brain, oral (30 mg/Kg) delivery, U87MG xenografts, Time 24 hr, read-out: HSP90 Compounds in Mouse Brain) of the same compound?
A: Its concentration at 24 hr is 3.2 ng/g.

Q: What about the “crossing (into brain)” value ([3]; nude mice with U87MG xenografts, oral 30 mg/Kg) of the same compound?
A: Its value is “superior results”.

Q: What about the “AUC in mouse brain” value ([3]; oral (30 mg/Kg) delivery, U87MG xenografts) of the same compound?
A: Its value is 1692.2 ng·h/g.

Q: What about the IC50 [4] of the same compound?
A: The IC50 was 61.2 nM.

Q: And the IC50 [5]?
A: The IC50 was 74.2 nM.

Q: And the “downstream PI3K/AKT and RAF/ERK signaling (p-AKT/AKT, p-ERK/ERK levels)” value [6]?
A: Its value is “suppressed”.

Q: What about the “levels of phosphorylated-MET and total MET” value [6] of the same compound?
A: Its value is “reduced”.

Q: What about the “phosphorylated and total EGFR, MET, AKT, and MAPK (ERK)” value [6, 23] of the same compound?
A: The value was “durably inhibited”.

Q: And the “downstream PI3K/AKT and RAF/ERK signaling (p-AKT/AKT, p-ERK/ERK levels)” value [7]?
A: The value was “suppressed”.

Q: What about the “levels of phosphorylated-MET and total MET” value [7] of the same compound?
A: The value was “reduced”.

Q: And the “phosphorylated and total EGFR, MET, AKT, and MAPK (ERK)” value [7, 23]?
A: The value was “durably inhibited”.

Q: What about the “HSP90 client proteins in tumors (Western blot)” value [8] of the same compound?
A: Its value is “dose-dependent inhibition”.

Q: And the “HSP70, a marker of HSP90 inhibition” value [9]?
A: The value was “concurrent induction”.

Q: And the “HSP90 client proteins in tumors” value [9]?
A: The value was “potent inhibition”.

Q: And the “mutant EGFR” value [9]?
A: Its value is “induced degradation”.

Q: What about the “apoptosis (PARP and caspase-3 cleavages)” value ([9]; 6- and 24-hour time points) of the same compound?
A: Its value is “robustly induced apoptosis”.

Q: What about the body weight [10] of the same compound?
A: Its body weight is “without significant loss”.

Q: What about the tumor growth [10] of the same compound?
A: The tumor growth was “Dose-dependent inhibition”.

Q: And the “animal survival, dose dependence” value ([11]; 20, 40, 80, and 120 mg/kg, 5-wk dosing regimen)?
A: Its value is “dose-dependently extended animal survival”.

Q: And the animal survival ([11]; Compound-15 120 mg/kg orally once every two days, erlotinib 50 mg/kg orally once a day, 5 wk)?
A: Its animal survival is “significantly prolonged animal survival”.

Q: What about the “HSP70, apoptosis and phosphorylated-AKT in tumors (Western blot)” value [12] of the same compound?
A: The value was “Sustained induction of HSP70 and apoptosis and inhibition of oncoprotein phosphorylated-AKT”.

Q: What about the animal survival [13] of the same compound?
A: Its animal survival is “significantly prolonged animal survival”.

Q: And the “HER2 and key components of the PI3K/AKT and RAF/MEK/ERK signaling pathways (Western blot)” value [14]?
A: Its value is “Potent inhibition”.

Q: What about the “HSP70 (Western blot)” value [14] of the same compound?
A: Its value is “concurrent induction”.

Q: And the T/C [15]?
A: The T/C was 9.5%.

Q: What about the tumor growth [15] of the same compound?
A: The tumor growth was “Tumor stasis”.

Q: And the animal survival [16]?
A: The animal survival was “significantly prolonged animal survival”.

Q: And the tumor regression [17]?
A: The tumor regression was “complete tumor regression”.

Q: What about the “EGFR and signaling molecules in tumors (Western blot)” value [18] of the same compound?
A: Its value is “inhibited”.

Q: What about the tumor regression [19] of the same compound?
A: Its tumor regression is 3.4%.

Q: And the T/C [20]?
A: The T/C was 14.2%.
